Results taken from patent publication US12303517B1, “Oral testosterone therapy” (Lipocine, Inc., priority 2016, dated 2025).

Columns and labels:
[1] = Single fixed dose dosing regimen examples for safety and efficacy (serum T Cmax / Cavg criteria), with food; type: in vivo, human
[2] = Randomized double-blind placebo-controlled dose escalating clinical study of oral T13 in hypogonadal males (serum testosterone pharmacokinetics); type: in vivo, human; details: for T Cavg (±SD) / T Cmax (±SD) / % with Cavg/day > 300 ng/dL / % with Cmax/dose < 1,500 ng/dL: hypogonadal males; for % with Cavg/day > 300 ng/dL / % with Cmax/dose < 1,500 ng/dL: serum T
Description: Dosage Form Example B of Composition 4 with dosing regimen (Regimen #. 1-9) of dosing category BID-equal dose with daily dose range 500-1250 mg of T13 in this invention were used for a clinic study of Testosterone Therapy for hypogonadal males.
This Clinical Study is a Randomized Double-Blind, Placebo-Controlled Dose Escalating Study of the Safety, Efficacy, Tolerability, and Pharmacokinetics of Testosterone Therapy in Hypogonadal Males. This clinic study was a single and multiple, ascending-dose study that was designed to determine the optimal starting, titration (if appropriate), or single fixed dose for safety and efficacy targeted by US FDA. The study also verified the time for testosterone levels to reach steady state and identified a suitable single fixed dose dosing regimen that satisfies unmet need for safety and efficacy for oral TRT.
This study was carried out with conditions of a single-center, randomized, double-blind, placebo-controlled, ascending multiple-dose, and serial-group in adult hypogonadal male subjects. The objectives of this study were: • a) To assess the safety, efficacy, and tolerability of escalating single and multiple oral doses of T13 dosage forms in hypogonadal males • b) To determine the pharmacokinetics (PK) of testosterone (T), DHT, TT, DHTT, and estradiol (E2) after single and multiple oral doses of TT dosage forms in hypogonadal males • c) To identify single fixed dose dosing regimen satisfying USFDA target, not needing to titrate for restoring average serum T levels in hypogonadal males to the normal T range.
The dosing regimen for this clinic study ranged from 500 mg daily dose to 1250 mg daily dose with […]. Observed pharmacokinetic parameters (T, DHT, T13, DHTT, and E2) after single and multiple oral doses of T13 dosage forms in the patients were recorded by each daily dose in the report. […] The overall analyzed results of this clinic study were plotted according to % of patients for safety (Cmax <1,500 ng/dL) and efficacy (Cavg >300 ng/dL) with a variety of dosing regimen. Its results are shown in the below table.

[3] = Regimen 12, BID-equal dose (AM/PM) 375/375 mg T13, with food with at least 10 g of fat
[4] = Regimen 13, BID-equal dose (AM/PM) 400/400 mg T13, with food with at least 10 g of fat
[5] = Regimen 14, BID-equal dose (AM/PM) 450/450 mg T13, with food with at least 10 g of fat
[6] = Regimen 15, BID-equal dose (AM/PM) 500/500 mg T13, with food with at least 10 g of fat
[7] = Regimen 16, BID-equal dose (AM/PM) 550/550 mg T13, with food with at least 10 g of fat
[8] = Regimen 17, BID-equal dose (AM/PM) 575/575 mg T13, with food with at least 10 g of fat
[9] = Regimen 18, BID-equal dose (AM/PM) 625/625 mg T13, with food with at least 10 g of fat
[10] = 750 mg T13 QD dose at steady state (14 days)
[11] = daily dose 500 mg T13 (equivalent T dose 298 mg)
[12] = daily dose 700 mg T13 (equivalent T dose 417 mg)
[13] = daily dose 750 mg T13 QD (equivalent T dose 446 mg)
[14] = daily dose 800 mg T13 (equivalent T dose 476 mg)
[15] = daily dose 900 mg T13 (equivalent T dose 536 mg)
[16] = daily dose 1000 mg T13 QD (equivalent T dose 595 mg)
[17] = daily dose 1100 mg T13 (equivalent T dose 655 mg)
[18] = daily dose 1150 mg T13 (equivalent T dose 685 mg)
[19] = daily dose 1250 mg T13 (equivalent T dose 744 mg)

In the case of `CCCCCCCCCCCCC(=O)O[C@H]1CC[C@H]2[C@@H]3CCC4=CC(=O)CC[C@]4(C)[C@H]3CC[C@]12C` [T13, testosterone tridecanoate], the “Cavg > 300 ng/dL ≥75% patients” value [1, 3] is reported as “Yes”, the “Cavg > 300 ng/dL ≥80% patients” value [1, 3] is reported as “No” and the “Cmax > 1500 ng/dL <15% patients” value [1, 3] is reported as “Yes”. The “Cmax > 1500 ng/dL <20% patients” value [1, 3] was “Yes”, the “Cmax > 1800 ng/dL <5% patients” value [1, 3] was “Yes” and the “Cmax > 1800 ng/dL <10% patients” value [1, 3] was “Yes”. For the same compound, the “Cmax > 2500 ng/dL <2% patients” value [1, 3] was “Yes”, the “Cmax > 2500 ng/dL none of patients” value [1, 3] was “Yes” and the “Cavg > 300 ng/dL ≥75% patients” value [1, 4] was “Yes”. For the same compound, the “Cavg > 300 ng/dL ≥80% patients” value [1, 4] was “Yes”, the “Cmax > 1500 ng/dL <15% patients” value [1, 4] was “Yes” and the “Cmax > 1500 ng/dL <20% patients” value [1, 4] was “Yes”. The “Cmax > 1800 ng/dL <5% patients” value [1, 4] was “Yes”, the “Cmax > 1800 ng/dL <10% patients” value [1, 4] was “Yes” and the “Cmax > 2500 ng/dL <2% patients” value [1, 4] was “Yes”. For the same compound, the “Cmax > 2500 ng/dL none of patients” value [1, 4] was “Yes”, the “Cavg > 300 ng/dL ≥75% patients” value [1, 5] was “Yes” and the “Cavg > 300 ng/dL ≥80% patients” value [1, 5] was “Yes”. The “Cmax > 1500 ng/dL <15% patients” value [1, 5] was “Yes”, the “Cmax > 1500 ng/dL <20% patients” value [1, 5] was “Yes” and the “Cmax > 1800 ng/dL <5% patients” value [1, 5] was “Yes”. The “Cmax > 1800 ng/dL <10% patients” value [1, 5] was “Yes”, the “Cmax > 2500 ng/dL <2% patients” value [1, 5] was “Yes” and the “Cmax > 2500 ng/dL none of patients” value [1, 5] was “Yes”. The “Cavg > 300 ng/dL ≥75% patients” value [1, 6] was “Yes”, the “Cavg > 300 ng/dL ≥80% patients” value [1, 6] was “Yes” and the “Cmax > 1500 ng/dL <15% patients” value [1, 6] was “Yes”. The “Cmax > 1500 ng/dL <20% patients” value [1, 6] was “Yes”, the “Cmax > 1800 ng/dL <5% patients” value [1, 6] was “Yes” and the “Cmax > 1800 ng/dL <10% patients” value [1, 6] was “Yes”. The “Cmax > 2500 ng/dL <2% patients” value [1, 6] was “Yes”, the “Cmax > 2500 ng/dL none of patients” value [1, 6] was “Yes” and the “Cavg > 300 ng/dL ≥75% patients” value [1, 7] was “Yes”. The “Cavg > 300 ng/dL ≥80% patients” value [1, 7] was “Yes”, the “Cmax > 1500 ng/dL <15% patients” value [1, 7] was “Yes” and the “Cmax > 1500 ng/dL <20% patients” value [1, 7] was “Yes”. For the same compound, the “Cmax > 1800 ng/dL <5% patients” value [1, 7] was “Yes”, the “Cmax > 1800 ng/dL <10% patients” value [1, 7] was “Yes” and the “Cmax > 2500 ng/dL <2% patients” value [1, 7] was “Yes”. For the same compound, the “Cmax > 2500 ng/dL none of patients” value [1, 7] was “Yes”, the “Cavg > 300 ng/dL ≥75% patients” value [1, 8] was “Yes” and the “Cavg > 300 ng/dL ≥80% patients” value [1, 8] was “Yes”. The “Cmax > 1500 ng/dL <15% patients” value [1, 8] was “Yes”, the “Cmax > 1500 ng/dL <20% patients” value [1, 8] was “Yes” and the “Cmax > 1800 ng/dL <5% patients” value [1, 8] was “Yes”. The “Cmax > 1800 ng/dL <10% patients” value [1, 8] was “Yes”, the “Cmax > 2500 ng/dL <2% patients” value [1, 8] was “Yes” and the “Cmax > 2500 ng/dL none of patients” value [1, 8] was “Yes”. The “Cavg > 300 ng/dL ≥75% patients” value [1, 9] was “Yes”, the “Cavg > 300 ng/dL ≥80% patients” value [1, 9] was “Yes” and the “Cmax > 1500 ng/dL <15% patients” value [1, 9] was “Yes”. For the same compound, the “Cmax > 1500 ng/dL <20% patients” value [1, 9] was “Yes”, the “Cmax > 1800 ng/dL <5% patients” value [1, 9] was “Yes” and the “Cmax > 1800 ng/dL <10% patients” value [1, 9] was “Yes”. For the same compound, the “Cmax > 2500 ng/dL <2% patients” value [1, 9] was “Yes”, the “Cmax > 2500 ng/dL none of patients” value [1, 9] was “Yes” and the “T Cavg (±SD)” value [2, 10] was 352 (±41) ng/dL. The “T Cmax (±SD)” value [2, 10] was 822 (±254) ng/dL, the “T Cavg (±SD)” value ([2]; 1000 mg QD dose at steady state (14 days)) was 405 (±148) ng/dL and the “T Cmax (±SD)” value ([2]; 1000 mg T13 QD dose at steady state (14 days)) was 930 (±326) ng/dL. The “% with Cavg/day > 300 ng/dL” value [2, 11] was 36.3%, the “% with Cmax/dose < 1,500 ng/dL” value [2, 11] was 100.0% and the “% with Cavg/day > 300 ng/dL” value [2, 12] was 71.5%. The “% with Cmax/dose < 1,500 ng/dL” value [2, 12] was 100.0%, the “% with Cavg/day > 300 ng/dL” value [2, 13] was 76.2% and the “% with Cmax/dose < 1,500 ng/dL” value [2, 13] was 99.5%. The “% with Cavg/day > 300 ng/dL” value [2, 14] was 80.0%, the “% with Cmax/dose < 1,500 ng/dL” value [2, 14] was 98.8% and the “% with Cavg/day > 300 ng/dL” value [2, 15] was 85.0%. The “% with Cmax/dose < 1,500 ng/dL” value [2, 15] was 96.7%, the “% with Cavg/day > 300 ng/dL” value [2, 16] was 88.1% and the “% with Cmax/dose < 1,500 ng/dL” value [2, 16] was 92.8%. For the same compound, the “% with Cavg/day > 300 ng/dL” value [2, 17] was 90.0%, the “% with Cmax/dose < 1,500 ng/dL” value [2, 17] was 85.6% and the “% with Cavg/day > 300 ng/dL” value [2, 18] was 90.7%. For the same compound, the “% with Cmax/dose < 1,500 ng/dL” value [2, 18] was 80.0%, the “% with Cavg/day > 300 ng/dL” value [2, 19] was 91.6% and the “% with Cmax/dose < 1,500 ng/dL” value [2, 19] was 66.8%. For the same compound, the “US FDA T level target for safety and efficacy for testosterone replacement therapy” value ([2]; single fixed dose, no titration, 750 mg to 1100 mg daily dose of T13) was “satisfies US FDA T level target for safety and efficacy”.
